According to patent US20050228041A1, “Protective and therapeutic uses for tocotrienols” (priority 2003, published 2005):
“Also recorded” adds a separate entry of the source.

What was measured:
HT4 neurons [1] = assay: Glutamate-induced death of HT4 neurons (propidium iodide exclusion flow cytometry, cell counts); format: cell-based, mouse
Description: Referring to FIG. 1, primary rat immature cortical neurons (A-C) or HT4 (D) were either treated or not with α-tocotrienol (as indicated) for 5 min and challenged with either glutamate (10 mM; A); L-homocysteic acid (1 mM; B); or buthionine sulfoximine (0.15 mM; BSO) for 24 h. […] Cells were counted at 12, 24 and 36 h after glutamate challenge.
First, we tested for the involvement of 12-LOX in the execution of glutamate-induced death in our model. We started by using the 12-LOX specific inhibitor baicalein or BL15. Referring to FIG. 3, HT4 neurons (A) were either treated or not with a-tocotrienol (250 nM) or […] (2.5 μM, 12-lipoxygenase inhibitor) for 5 min and then challenged with glutamate (10 mM). Cell viability was determined using propidium iodide (PI) exclusion flow cytometry assay. PI−=live; PI+=dead. Rat primary immature cortical neurons (B-D) were either treated or not with α-tocotrienol (100 nM) or BL15 (2.5 μM) for 5 min and challenged either with glutamate (10 mM; B); L-homocysteic acid (1 mM; C) or buthionine sulfoximine (0.15 mM; BSO; D) for 24 h. Arachidonic acid, 50 μM for 24h. BL15, Baicalein 5,6,7-trihydroxy-flavone.
Cell culture. Mouse hippocampal HT4 cells, were grown in Dulbecco's Modified Eagle Medium supplemented with 10% fetal calf serum, penicillin (100 U/ml) and streptomycin (100 μg/ml) at 37° C. in a humidified atmosphere containing 95% air and 5% CO2. HT4 cells were provided by Dr. D. E. Koshland Jr. (University of California at Berkeley) (Sen et al., 2000). Primary cortical neurons. Cells were isolated from the cerebral cortex of rat feti (Sprague Dawley; day 17 of gestation) or mouse feti (C57BL/6 mice, day 14 of gestation) as described (Murphy et al., 1990). For 12-LOX knockout studies, neurons were isolated from the feti of B6.129S2-Alox15^tm1Fun (Jackson Laboratory, […].). After isolation from the brain, cells were counted and seeded in culture plates at a density of 2-3×10^6 cells per 35 mm plate (Murphy et al., 1990). Cells were grown in Minimal Essential Medium (MEM) supplemented with 10% heat-inactivated fetal bovine serum, 40 μM cystine and antibiotics (100 μg/ml streptomycin, 100 units/ml penicillin, 0.25 μg/ml amphotericin). Cultures were maintained at 37° C. in 5% CO2 and 95% air in a humidified incubator. All experiments were carried out 24 h after plating.
Treatment with neurotoxic agents. Immediately before experiments, culture media was replaced with fresh medium supplemented with serum and antibiotics. Glutamate (10 mM) was added to the media as aqueous solution (Han et al., 1997a; Sen et al., 2000; Tirosh et al., 2000). […] Other agents used to induce death in neuronal cells have been described in the pertinent figure legends.
Vitamin E treatment. Stock solutions (10^3X of working concentration) of α-tocotrienol was prepared in ethanol. […]
Determination of cell viability. Viability of HT4 cells was determined using propidium iodide exclusion assay using the flow cytometer as described by us previously (Sen et al., 2000; Tirosh et al., 2000). Because primary neuronal cultures tend to aggregate during flow cytometry, the viability of these cells was assessed by measuring lactate dehydrogenase (LDH) leakage (Han et al., 1997a) from cells to media 24 h following glutamate treatment using in vitro toxicology assay kit from Sigma Chemical Co. (St. Louis, Mo., USA). […]

[2] = system: rat primary cortical neurons; assay: Imaging of glutamate-induced degeneration of rat primary cortical neurons (immunofluorescence, live cell imaging); format: cell-based; conditions: glutamate 10 mM, α-tocotrienol 250 nM or BL15 2.5 μM 5 min before
Description: Phase contrast images were collected once every 15 mins for 18 h from 8 h after glutamate treatment.
For immunofluorescence microscopy, primary cultures of rat cortical neurons were plated on 35 mm plates pre-coated with poly-L-lysine. After 24 h, cell were treated with α-tocotrienol or BL15 for 5 minutes and then challenged with glutamate or exposed to glutamate. After 24 h of glutamate exposure, cells were washed thrice in PBS, fixed for 10 minutes at room temperature in 4% paraformaldehyde, and permeabilized with PBS-T (PBS containing 0.2% Triton X-100) for 20 minutes at room temperature. Samples were then rinsed 3× with PBS-T and blocking (2% BSA in PBS-T) was done for 1 h at room temperature. After blocking, samples were incubated overnight at 4° C. with the primary antibody (anti-neurofilament 200 (1:100, Sigma St. Louis, Mo.) or neuronal class III α-tubulin (1:500, Covance Berkeley, Calif.)}. After washing with PBS (3×, 5 min each), the samples were incubated with Alexa Fluor 488 conjugated goat anti-mouse or anti-rabbit (Molecular Probes Eugene, Oreg.) secondary antibody for 45 minutes at room temperature. This was followed by three PBS washes, and mounting in aqueous medium. Fluorescent images were collected using a Zeiss Axiovert 200M microscope. Images were acquired using Axiovision 3.1.
For live cell imaging, primary cultures of rat cortical neurons were plated on 35 mm plates pre-coated with poly-L-lysine. […] Images were collected once every 15 minutes using a specialized phase contrast Zeiss optics suited for imaging cells growing in routine culture plates.

[3] = system: 12-lipoxygenase activity in HT4 neurons; assay: 12(S)-HETE, product of 12-lipoxygenase activity, in glutamate-treated HT4 neurons (HPLC); format: cell-based, mouse; conditions: HT4, glutamate 12 h
Description: Neurons isolated from 12-LOX deficient mice are resistant to glutamate-induced death (FIG. 4). This striking finding reinforced our interest to test α-tocotrienol as an inhibitor of glutamate-inducible 12-LOX activity in neuronal cells. Referring to FIG. 5, Products of 12-lipoxygenase activity in glutamate-treated neurons were evaluated using a HPLC-based analytical approach. […] ND, not detectable. It was observed that the by-product of 12-LOX activity, 12(S)-HETE, was not detected in HT4 cells under basal culture conditions (FIG. 5). […] However, such increase was prevented in α-tocotrienol treated cells (FIG. 5). This line of observation led to the question whether over-expression of 12-LOX in HT4 cells would sensitize them to glutamate-induced cytotoxicity and whether α-tocotrienol could counter such toxicity.
12-HETE detection. 12-Hydroxy-eicosatetraenoic acid (HETE) from HT4 cells was detected using a HPLC-UV based method (Eberhard et al., 2000). Immunofluorescence microscopy. For immunofluorescence microscopy, primary cultures of rat cortical neurons were plated on 35 mm plates pre-coated with poly-L-lysine. After 24 h, cell were treated with α-tocotrienol or BL15 for 5 minutes and then challenged with glutamate or exposed to glutamate. […]

HT4 neurons [4] = conditions: nM concentrations; Sen et al., 2000; cited from earlier work

CC(C)=CCC/C(C)=C/CC/C(C)=C/CC[C@]1(C)CCc2c(C)c(O)c(C)c(C)c2O1 [α-tocotrienol]
protection against glutamate-induced toxicity / loss of cell viability of HT4 (HT4 neurons [1]; glutamate 10 mM, tocotrienol 100 nM (nM levels) 5 min before): protect against loss of cell viability | proliferation / growth rate of glutamate-treated HT4 cells (HT4 neurons [1]; tocotrienol 100 nM (nM levels), cells counted 12, 24 and 36 h after glutamate): preserve the normal growth rate | glutamate-induced degeneration of the neural network and neuronal growth [2]: resisted degeneration and continued to grow; also recorded: prevents glutamate-induced neuro-degeneration; also recorded: protection | glutamate-induced degeneration of the neural network and neuronal growth ([2]; listed as α-Tocotrienol): insensitive to glutamate | glutamate-induced increase of cellular 12(S)-HETE content [3]: prevented | protection of HT4 neurons from glutamate-induced death (previously reported) (HT4 neurons [4]): protects
